# Measurements reported in patent US10821115B2, “Compounds that inhibit Mcl-1 protein” (priority 2017, dated 2020).
# pIC50: −log10 of the molar value. Read-outs that look alike come from different tables or passages of the source.
# Key:
# [1] = test system: human multiple myeloma cell line, OPM-2; test: Cell viability assay (OPM-2 10 FBS), CellTiter-Glo; format: cell-based
# Outline: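 OPM-2 cells at 3000 cells/well in RPMI 1640 with 10% FBS were exposed to serially diluted compounds for 16 h at 37 °C, 5% CO2.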
# [2] = molecular target: recombinant human Mcl-1 (residues 171-327) / Bim interaction (Homo sapiens (Human), UniProt Q07820); test: biochemical; format: binding; settings: TR-FRET, Mcl-1(171-327) / biotin-Bim (51-76); read-out: Mcl-1 HTRF IC50
# recombinant human Mcl-1 (residues 171-327) / Bim interaction, sequence (Q07820 171-327): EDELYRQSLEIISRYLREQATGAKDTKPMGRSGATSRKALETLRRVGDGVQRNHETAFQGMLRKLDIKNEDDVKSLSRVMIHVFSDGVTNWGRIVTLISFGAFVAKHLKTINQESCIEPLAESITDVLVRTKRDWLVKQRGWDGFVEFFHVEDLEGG
# [3] = Homo sapiens, OPM-2, 16 h, read-out: OPM-2 10% FBS IC50 IP, OPM-2 cells, 10% FBS, 16 h, CellTiter-Glo
# [4] = read-out: OPM-2 10% FBS IC50 IP, OPM-2 cells, 10% FBS, 16 h, CellTiter-Glo
SMILES,"pIC50 [1, 3]",pIC50 [2],"pIC50 [1, 4]"
"COC[C@]1(OC)CCC[C@H](C)[C@@H](C)S(=O)(=O)NC(=O)c2ccc3c(c2)N(C[C@@H]2CC[C@H]21)C[C@@]1(CCCc2cc(Cl)ccc21)CO3 [Example 100189, (1S,3′R,6′R,7′S,11′S,12′R)-6-chloro-7′-methoxy-7′-(methoxymethyl)-11′,12′-dimethyl-3,4-dihydro-2H,15′H-spiro[naphthalene-1,22′-[20]oxa[13]thia[1,14]diazatetracyclo [14.7.2.0~3,6~.0~19,24~]pentacosa[16,18,24]trien]-15′-one 13′,13′-dioxide]",6.15,9.09,
"CCOC[C@@]1(O)CCC[C@H](C)[C@@H](C)S(=O)(=O)NC(=O)c2ccc3c(c2)N(C[C@@H]2CC[C@H]21)C[C@@]1(CCCc2cc(Cl)ccc21)CO3 [Example 100190, (1S,3′R,6′R,7′R,11′S,12′R)-6-chloro-7′-(ethoxymethyl)-7′-hydroxy-11′,12′-dimethyl-3,4-dihydro-2H,15′H-spiro[naphthalene-1,22′-[20]oxa[13]thia[1,14]diazatetracyclo [14.7.2.0~3,6~.0~19,24~]pentacosa[16,18,24]trien]-15′-one 13′,13′-dioxide]",5.61,8.32,
"COc1cccc([C@]2(O)/C=C/C[C@H](C)[C@@H](C)S(=O)(=O)NC(=O)c3ccc4c(c3)N(C[C@@H]3CC[C@H]32)C[C@@]2(CCCc3cc(Cl)ccc32)CO4)n1 [Example 100191, (1S,3′R,6′R,7′S,8′E,11′S,12′R)-6-chloro-7′-hydroxy-7′-(6-methoxy-2-pyridinyl)-11′,12′-dimethyl-3,4-dihydro-2H,15′H-spiro[naphthalene-1,22′-[20]oxa[13]thia[1,14]diazatetracyclo [14.7.2.0~3,6~.0~19,24~]pentacosa[8,16,18,24]tetraen]-15′-one 13′,13′-dioxide]",6.25,8.80,
"COCCOC[C@]1(O)CCC[C@H](C)[C@@H](C)S(=O)(=O)NC(=O)c2ccc3c(c2)N(C[C@@H]2CC[C@H]21)C[C@@]1(CCCc2cc(Cl)ccc21)CO3 [Example 100192, (1S,3′R,6′R,7′S,11′S,12′R)-6-chloro-7′-hydroxy-7′-((2-methoxyethoxy)methyl)-11′,12′-dimethyl-3,4-dihydro-2H,15′H-spiro[naphthalene-1,22′-[20]oxa[13]thia[1,14]diazatetracyclo [14.7.2.0~3,6~.0~19,24~]pentacosa[16,18,24]trien]-15′-one 13′,13′-dioxide]",6.83,9.72,
"COCCOC[C@@]1(O)CCC[C@H](C)[C@@H](C)S(=O)(=O)NC(=O)c2ccc3c(c2)N(C[C@@H]2CC[C@H]21)C[C@@]1(CCCc2cc(Cl)ccc21)CO3 [Example 100193, (1S,3′R,6′R,7′R,11′S,12′R)-6-chloro-7′-hydroxy-7′-((2-methoxyethoxy)methyl)-11′,12′-dimethyl-3,4-dihydro-2H,15′H-spiro[naphthalene-1,22′-[20]oxa[13]thia[1,14]diazatetracyclo [14.7.2.0~3,6~.0~19,24~]pentacosa[16,18,24]trien]-15′-one 13′,13′-dioxide]",5.89,9.07,
"C[C@@H]1[C@@H](C)CCC[C@@](O)(COCCN(C)C)[C@@H]2CC[C@H]2CN2C[C@@]3(CCCc4cc(Cl)ccc43)COc3ccc(cc32)C(=O)NS1(=O)=O [Example 100194, (1S,3′R,6′R,7′S,11S,12R)-6-chloro-7′-((2-(dimethylamino)ethoxy)methyl)-7′-hydroxy-11′,12′-dimethyl-3,4-dihydro-2H,15′H-spiro[naphthalene-1,22′-[20]oxa[13]thia[1,14]diazatetracyclo [14.7.2.0~3,6~.0~19,24~]pentacosa[16,18,24]trien]-15′-one 13′,13′-dioxide]",6.21,9.21,
"C[C@@H]1[C@@H](C)CCC[C@](O)(COCCN(C)C)[C@@H]2CC[C@H]2CN2C[C@@]3(CCCc4cc(Cl)ccc43)COc3ccc(cc32)C(=O)NS1(=O)=O [Example 100195, (1S,3′R,6′R,7′R,11′S,12′R)-6-chloro-7′-((2-(dimethylamino)ethoxy)methyl)-7′-hydroxy-11′,12′-dimethyl-3,4-dihydro-2H,15′H-spiro[naphthalene-1,22′-[20]oxa[13]thia[1,14]diazatetracyclo [14.7.2.0~3,6~.0~19,24~]pentacosa[16,18,24]trien]-15′-one 13′,13′-dioxide]",6.20,8.97,
"C[C@@H]1[C@@H](C)CCC[C@@]2(CC(N(C)C)=NO2)[C@@H]2CC[C@H]2CN2C[C@@]3(CCCc4cc(Cl)ccc43)COc3ccc(cc32)C(=O)NS1(=O)=O [Example 100197, (1S,3′R,6′R,7′R,11′S,12′R)-6-chloro-3″- (dimethylamino)-11′,12′-dimethyl-3,4-dihydro-2H,4″H,15′H-dispiro[naphthalene-1,22′-[20]oxa[13]thia[1,14]diazatetracyclo [14.7.2.0~3,6~.0~19,24~]pentacosa[16,18,24]triene-7′,5″-[1,2]oxazol]-15′-one 13′,13′-dioxide]",5.61,9.11,
"C[C@@H]1[C@@H](C)C/C=C/[C@](O)(c2nccn2C)[C@@H]2CC[C@H]2CN2C[C@@]3(CCCc4cc(Cl)ccc43)COc3ccc(cc32)C(=O)NS1(=O)=O [Example 100198, (1S,3′R,6′R,7′R,8′E,11′S,12′R)-6-chloro-7′-hydroxy-11′,12′-dimethyl-7′-(1-methyl-1H-imidazol-2-yl)-3,4-dihydro-2H,15′H-spiro[naphthalene-1,22′-[20]oxa[13]thia[1,14]diazatetracyclo [14.7.2.0~3,6~.0~19,24~]pentacosa[8,16,18,24]tetraen]-15′-one 13′,13′-dioxide]",,9.51,6.40
"C[C@@H]1[C@@H](C)C/C=C/[C@@](O)(c2nccn2C)[C@@H]2CC[C@H]2CN2C[C@@]3(CCCc4cc(Cl)ccc43)COc3ccc(cc32)C(=O)NS1(=O)=O [Example 100199, (1S,3′R,6′R,7′S,8′E,11′S,12′R)-6-chloro-7′-hydroxy-11′,12′-dimethyl-7′-(1-methyl-1H-imidazol-2-yl)-3,4-dihydro-2H,15′H-spiro[naphthalene-1,22′-[20]oxa[13]thia[1,14]diazatetracyclo [14.7.2.0~3,6~.0~19,24~]pentacosa[8,16,18,24]tetraen]-15′-one 13′,13′-dioxide]",6.83,9.78,
"C[C@@H]1[C@@H](C)C/C=C/[C@@](O)(c2nc(CO)nn2C)[C@@H]2CC[C@H]2CN2C[C@@]3(CCCc4cc(Cl)ccc43)COc3ccc(cc32)C(=O)NS1(=O)=O [Example 100200, (1S,3′R,6′R,7′S,8′E,11′S,12′R)-6-chloro-7′-hydroxy-7′-(3-(hydroxymethyl)-1-methyl-1H-1,2,4-triazol-5-yl)-11′,12′-dimethyl-3,4-dihydro-2H,15′H-spiro[naphthalene-1,22′-[20]oxa[13]thia[1,14]diazatetracyclo [14.7.2.0~3,6~.0~19,24~]pentacosa[8,16,18,24]tetraen]-15′-one 13′,13′-dioxide]",5.97,9.67,
"C[C@@H]1[C@@H](C)C/C=C/[C@](O)(c2nc(CO)nn2C)[C@@H]2CC[C@H]2CN2C[C@@]3(CCCc4cc(Cl)ccc43)COc3ccc(cc32)C(=O)NS1(=O)=O [Example 100201, (1S,3′R,6′R,7′R,8′E,11′S,12′R)-6-chloro-7′-hydroxy-7′-(3-(hydroxymethyl)-1-methyl-1H-1,2,4-triazol-5-yl)-11′,12′-dimethyl-3,4-dihydro-2H,15′H-spiro[naphthalene-1,22′-[20]oxa[13]thia[1,14]diazatetracyclo [14.7.2.0~3,6~.0~19,24~]pentacosa[8,16,18,24]tetraen]-15′-one 13′,13′-dioxide]",6.51,10.07,
"C[C@@H]1[C@@H](C)CCC[C@@](O)([C@@H]2CCN(C)C2=O)[C@@H]2CC[C@H]2CN2C[C@@]3(CCCc4cc(Cl)ccc43)COc3ccc(cc32)C(=O)NS1(=O)=O [Example 100202, (1S,3′R,6′R,7′S,11′S,12′R)-6-chloro-7′-hydroxy-11′,12′-dimethyl-7′-((3S)-1-methyl-2-oxo-3-pyrrolidinyl)-3,4-dihydro-2H,15′H-spiro[naphthalene-1,22′-[20]oxa[13]thia[1,14]diazatetracyclo [14.7.2.0~3,6~.0~19,24~]pentacosa[16,18,24]trien]-15′-one 13′,13′-dioxide]",,9.45,6.03
"C[C@@H]1[C@@H](C)CCC[C@@](O)([C@@H]2CCN(C)C2=O)[C@@H]2CC[C@H]2CN2C[C@@]3(CCCc4cc(Cl)ccc43)COc3ccc(cc32)C(=O)NS1(=O)=O [Example 100203, (1S,3′R,6′R,7′S,11′S,12′R)-6-chloro-7′-hydroxy-11′,12′-dimethyl-7′-((3S)-1-methyl-2-oxo-3-pyrrolidinyl)-3,4-dihydro-2H,15′H-spiro[naphthalene-1,22′-[20]oxa[13]thia[1,14]diazatetracyclo [14.7.2.0~3,6~.0~19,24~]pentacosa[16,18,24]trien]-15′-one 13′,13′-dioxide]",,9.55,6.31
"C[C@@H]1[C@@H](C)CCC[C@@](O)([C@@H]2CCN(C)C2=O)[C@@H]2CC[C@H]2CN2C[C@@]3(CCCc4cc(Cl)ccc43)COc3ccc(cc32)C(=O)NS1(=O)=O [Example 100204, (1S,3′R,6′R,7′S,11′S,12′R)-6-chloro-7′-hydroxy-11′,12′-dimethyl-7′-((3S)-1-methyl-2-oxo-3-pyrrolidinyl)-3,4-dihydro-2H,15′H-spiro[naphthalene-1,22′-[20]oxa[13]thia[1,14]diazatetracyclo [14.7.2.0~3,6~.0~19,24~]pentacosa[16,18,24]trien]-15′-one 13′,13′-dioxide]",,8.78,5.28
